{"source": "patent US10689387B2", "about": "“Crystalline form of (1R,2R)-2-[4-(3-methyl-1H-pyrazol-5-yl)benzoyl]-N-(4-oxo-4,5,6,7-tetrahydropyrazolo[1,5-A]pyrazin-3-yl)cyclohexanecarboxamide” (AstraZeneca AB, priority 2016, dated 2020)", "tested_on": "LTB4 production in fresh human whole blood", "test": "FLAP Whole Blood Assay (Test B), inhibition of LTB4 production", "type": "cell-based", "settings": "method B: 4 h incubation at 37° C., calcium ionophore A23187 stimulation", "method": "FLAP Whole Blood Assay (Test B)\nCompounds were tested for the inhibition of LTB4 production in fresh human whole blood obtained by venapuncture using heparin to prevent clotting. 1.5 μL compounds or DMSO carrier were dispensed into the wells of a 96-well deep-well plate in 3-fold dilution series. 500 μL heparnised whole blood was then added followed by incubation at 37° C. for 30 min (method A) or 4 h (method B). 100 μL blood was subsequently transferred in triplicate to pre-dispensed 0.5 μL 2 mM calcium ionophore (calcimycin; A23187) in a second 96-well plate. Following incubation at 37° C. for 20 min, the assays were stopped by adding 10 μL of stop solution (100 mM EGTA, pH 7.4) and the plate was transferred to ice. The plate was centrifuged at 3000 rpm at 4° C. for 10 min and 10 μL plasma was transferred to a fresh 96 well plate containing 90 μL pre-dispensed EIA assay buffer (0.1 M phosphate buffer+0.1% BSA). LTB4 was then measured using reagents from a commercial EIA (Cayman Chemicals). […] Inhibition of LTB4 production was defined as the LTB4 level in the presence of a given concentration of test compound expressed as a % of the LTB4 level in the presence of DMSO. IC50 values were determined by plotting % inhibition versus log compound concentration and using a one site dose response model. […]", "data": [{"compound": "Cc1cc(-c2ccc(C(=O)[C@@H]3CCCC[C@H]3C(=O)Nc3cnn4c3C(=O)NCC4)cc2)[nH]n1", "note": "[Compound (I), (1R,2R)-2-[4-(3-methyl-1H-pyrazol-5-yl)benzoyl]-N-(4-oxo-4,5,6,7-tetrahydropyrazolo[1,5-a]pyrazin-3-yl)cyclohexanecarboxamide]", "values": [{"measurement": "IC50", "result": 40, "unit": "nM"}]}]}
